# Literature values as cited in patent publication US20230286919A1, “ISOQUINOLINE DERIVATIVES FOR USE IN THERAPY” (Vestlandets Innovasjonsselskap AS, priority 2020, published 2023).
# System: STAT1 and STAT5
# Details: cited from earlier work
smiles,measurement,value
Cc1ccc(S(=O)(=O)OCC(=O)Nc2ccc(C(=O)O)c(O)c2)cc1 [S3I-201],Activity towards STAT1 and STAT5,low activity
